In publication PMC6272279, “Carboxylated Acyclonucleosides: Synthesis and RNase A Inhibition” (Molecules, 2015):

Legend:
[1] = target: T1, RNase A (Bos taurus, UniProt P61823); assay: Comparative agarose gel-based assay of RNA degradation by RNase A; type: biochemical, Bovine; conditions: inhibitor 0.5 mM, RNase A 1 µM, RNA 10 mg/mL
T1 construct: purchased
T1 sequence (P61823 27-150): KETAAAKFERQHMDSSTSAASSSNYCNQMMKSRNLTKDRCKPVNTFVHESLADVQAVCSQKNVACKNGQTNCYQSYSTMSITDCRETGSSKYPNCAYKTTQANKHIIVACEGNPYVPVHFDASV
Description: Qualitative indication of RNase A inhibition by the synthetic inhibitors was obtained from a comparative agarose gel-based assay by monitoring the degradation of RNA by RNase A (Figure 2 and Figure 3). The most intense band observed in lane I in each gel is due to the presence of only RNA. […] These experimental observations reaffirmed our assumption that increasing the acidity of the molecules leads to an increase in the inhibitory property of the inhibitor.
Inhibition of RNase A was assayed qualitatively by the degradation of RNA in an agarose gel. In this method, 20 μL of RNase A (1 μM) was mixed with 20 μL (0.5 mM) of compounds U-ol-ol (5), C-ol-ol (16), U-acid (3), C-acid (14), U-ol-acid (8), C-ol-acid (18), U-di-acid (10), and C-di-acid (21) separately to a final volume of 50 μL and the resulting solutions incubated for 3 h. Twenty-microliter aliquots of the incubated mixtures were then mixed with 20 μL of RNA solution (10.0 mg/mL RNA, freshly dissolved in RNase free water) and incubated for another 30 min. Then 10 μL of sample buffer (containing 10% glycerol and 0.025% bromophenol blue) were added to this mixture and 15 μL from each solution were extracted and loaded onto a 1.1% agarose gel. The gel was run using a 0.04-M Tris-Acetic acid-EDTA (TAE) buffer (pH 8.0). The residual RNA was visualized by ethidium bromide staining under UV light.

[2] = target: T1, RNase A; assay: Inhibition kinetics with RNase A (UV, 2',3'-cCMP substrate, Lineweaver–Burk plot); type: biochemical, Bovine; conditions: 0.1-M Mes-NaOH buffer pH 6.0, 0.1 M NaCl, substrate 2',3'-cCMP; mean ± SD; read-out: Inhibition constant Ki
Description: In order to determine the type of inhibition and the inhibition constant (Ki) values, kinetic experiments were performed with compounds U-ol-acid (8), U-di-acid (10), C-ol-acid (18), and C-di-acid (21). The competitive nature of inhibition in all the cases was apparent from the nature of the Lineweaver–Burk plots obtained from the kinetic experiments (Figure 4 and Figure S1 (SI)).
A quantitative account of RNase A inhibition by the individual inhibitors was obtained by a UV spectroscopic method described by Anderson and co-workers. The assay was performed in a 0.1-M Mes-NaOH buffer, pH 6.0 containing 0.1 M NaCl using 2',3'-cCMP as the substrate. The inhibition constants were calculated from initial velocity data using a Lineweaver–Burk plot. The slopes from the Lineweaver–Burk double reciprocal plot were plotted against the corresponding inhibitor concentrations to get inhibition constants (Ki).

[3] = target: T1, RNase A; assay: Circular dichroism of RNase A secondary structure with inhibitor; parameters: species or system Bovine; conditions: RNase A 30 µM mixed with inhibitor 30 µM, 3 h; native RNase A 22.7%
Description: Inhibitors of RNase A are known to perturb the secondary structure of the enzyme upon binding. […] Therefore, the probable changes in the secondary structure of the enzyme by the inhibitors were monitored by observing the CD spectra of RNase A in the absence or presence of compounds U-di-acid (10) and C-di-acid (21) (Figure 5).
Circular Dichroism (CD) was performed in order to monitor the changes in the secondary structure of the enzyme as a result of interaction with the inhibitors. In this method, 200 µL of RNase A (30 µM) were mixed separately with 200 µL of U-di-acid (10) (30 µM) and C-di-acid (21) (30 µM) and incubated for 3 h. From the resulting solutions, an aliquot of 300 µL was used for CD measurements, taking a 1 mm path length quartz cell. The spectra were recorded in the range of 190–240 nm with a scan rate of 50 nm/min. Three scans were accumulated for each spectrum. The secondary structure was determined using an online server, DICHROWEB [46].

Structure (SMILES)	RNase A inhibition, relative band intensities in agarose gel [1]	Ki [2] [µM]	α-helix content of RNase A upon binding [3] [%]	melting point [°C]
Nc1ccn(CC(=O)N(CCO)CC(=O)O)c(=O)n1 [C-ol-acid (18), [[2-(4-Amino-2-oxo-2H-pyrimidin-1-yl)acetyl]-(2-hydroxyethyl)amino] acetic acid]	relatively more potent inhibitors	356 ± 7		
Nc1ccn(CC(=O)N(CC(=O)O)CC(=O)O)c(=O)n1 [C-di-acid (21), {[2-(4-Amino-2-oxo-2H-pyrimidin-1-yl)-acetyl]carboxymethylamino}acetic acid]	relatively more potent inhibitors	235 ± 9	29.2	190 to 193
Nc1ccn(CC(=O)NCC(=O)O)c(=O)n1 [C-acid (14), [2-(4-Amino-2-oxo-2H-pyrimidin-1-yl)acetylamino] acetic acid]				> 200

The next lines start with the values.

RNase A inhibition, relative band intensities in agarose gel [1]	Ki [2] [µM]	α-helix content of RNase A upon binding [3] [%]	melting point [°C]	Structure (SMILES)
relatively more potent inhibitors	454 ± 9		177 to 179	O=C(O)CN(CCO)C(=O)Cn1ccc(=O)[nH]c1=O [U-ol-acid (8)]
relatively more potent inhibitors	301 ± 15	24.7	118 to 120	O=C(O)CN(CC(=O)O)C(=O)Cn1ccc(=O)[nH]c1=O [U-di-acid (10), {Carboxymethyl-[2-(2,4-dioxo-3,4-dihydro-2H-pyrimidin-1-yl)acetyl]amino}acetic acid]
